Values quoted from earlier work as cited in patent US20200368234A1, “PHOTORECEPTOR GENE MODULATOR PHOTOREGULIN 3 FOR TREATMENT OF RETINAL DISEASE” (University of Washington, priority 2017, published 2020).

Assays:
[1] = test system: rod gene expression; conditions: developing or mature retina treated with PR1; previously reported; cited from earlier work
[2] = test system: Rho^P23H; conditions: Rho^P23H model of RP; previously reported; cited from earlier work
[3] = test system: Pde6b^Rd1; conditions: Pde6b^Rd1 model of RP; previously reported; cited from earlier work

Cc1cc(C)cc(NC(=O)CCc2nc3sc4c(c3c(=O)[nH]2)CCCC4)c1 [PR1]
rod and cone gene expression [1]: reduces rod gene expression and increases the expression of some cone genes
rod degeneration in vitro [2]: slows rod degeneration in vitro
rod degeneration in vitro [3]: slows rod degeneration in vitro
